In US9023653B2, “Method of labeling sulfenic acid-containing proteins and peptides” (Wake Forest University Health Sciences, priority 2011, dated 2015):

What was measured:
[1] = system: C165S AhpC-SH, C165S AhpC-SO2H and —SO3H, WT AhpC-S—S-AhpC; assay: Control experiments using AhpC-SH, AhpC-SO2/3H and WT AhpC proteins (ESI-TOF MS); format: biochemical, bacteria; details: 5 mM, pH 7.4, 1.5 h at r.t.
Experimental: (§1) Reduced form of C165S AhpC(C165S AhpC-SH), hyperoxidized protein (C165S AhpC-SO2H and —SO3H) and WT AhpC (disulfide crosslinked dimer, […]) were incubated with 1 (5 mM) for 1.5 h at r.t., pass through the Bio-Gel spin column and analyzed by ESI-TOF MS. C165S AhpC-SO2H and —SO3H were generated by incubating C165S AhpC-SH (250 μM) in ddH2O with 20 equivalents H2O2 for 1 h at r.t. with mixing. The excess H2O2 was removed using Bio-Gel spin columns and protein concentration was determined based on absorbance at 280 nm using the extinction coefficient 24,300 (M^−1 cm^−1).
(§2) ESI-TOF-MS analysis was performed on Agilent MSD TOF system in positive ion mode with the following settings: capillary voltage (VCap) 3500 V, nebulizer gas 30 psig, drying gas 5.0 L min^−1; fragmentor 140 V; gas temperature 325° C. The samples were injected at a flow rate of 20 μL min^−1, using a syringe pump (KD Scientific). The averaged MS spectra were deconvoluted using the Agilent MassHunter Workstation Software v B.01.03.

[2] = cited from earlier work
[3] = biological target: C165S AhpC-SOH (Salmonella typhimurium, UniProt P0A251, C166S); assay: Labeling of C165S AhpC-SOH monitored by ESI-TOF MS; format: biochemical, bacteria
C165S AhpC-SOH, sequence (P0A251 whole entry C166S): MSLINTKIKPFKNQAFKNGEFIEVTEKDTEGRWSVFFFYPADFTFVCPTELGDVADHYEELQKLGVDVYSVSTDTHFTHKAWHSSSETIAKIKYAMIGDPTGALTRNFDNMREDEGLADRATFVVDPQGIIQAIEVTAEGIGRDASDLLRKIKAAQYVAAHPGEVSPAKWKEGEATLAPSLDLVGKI
Experimental: The C165S AhpC was reduced in 10 mM DTT at room temperature for […] and the DTT was then removed by passing the protein solution through a Bio-Gel spin column equilibrated with ddH2O. The protein concentration was measured based on absorbance at 280 nm using the extinction coefficient 24,300 (M^−1 cm^−1). Typically, 200-400 μM C165S AhpC protein was oxidized to —SOH by incubating with 2 equivalents H2O2 for […] at r.t. with mixing. The excess H2O2 was removed using Bio-Gel spin columns equilibrated with ddH2O.
The C165S AhpC-SOH protein generated as described above was diluted to 50 μM in 50 mM Bis-tris-citric acid buffer (pH 7.4) containing 5 mM (final concentration) of reagent 1. After 3 h incubation with mixing, 30 μL aliquot of reaction mixture was passed through a Bio-Gel column equilibrated with 0.1% formic acid for ESI-TOF MS analysis. […] The covalent C165S AhpC-1 adduct was incubated with 50 mM-1 M hydroxylamine (stock 1N hydroxylamine, pH 8.0-8.5, adjusted by adding 2 N NaOH or 1 N ammonium bicarbonate) for 1 h at 37° C. before passing through the Bio-Gel column for ESI-TOF MS analysis.
The C165S AhpC-SOH protein was immediately aliquot to appropriate buffers: 50 mM Bis-tris-citric acid pH 7.4, 8.5, and 9.5, and 25 mM critic acid-Na2HPO4 buffers pH 5.5, and 6.5. Final concentrations of 50 μM protein and 5 mM labeling reagents (dimedone or 2) were used for all reactions. Dimedone stock was made in 0.5 M Bis-tris and DMSO (v:v=1:1) to pre-buffer its acidity around 6.5 before adding it to the reaction buffers. Final DMSO concentration during labeling was 0.5%. At the end of the incubation time (4 h for data in FIG. 1—pH 7.4 and 8.5; 90 min for data in FIG. S5A—pH 5.5-9.5), 30 μl, reaction mixture at each pH was passed through a Bio-Gel spin column and analyzed by ESI-TOF MS. Data were fit using SigmaPlot 11.0 and the user defined equation below to obtain the pKa: […]
The C165S AhpC-SOH was incubated with increasing concentrations of 2 (0.2, 0.5, 1, 5, and 10 mM) for 2 h in 50 mM Bis-tris-citric acid (pH 7.4) at r.t. The reaction mixture (30 μL) was passed through a Bio-Gel spin column and analyzed by ESI-TOF MS. Data were fit to a hyperbolic equation to determine K0.5 using SigmaPlot 11.0.
C165S AhpC-SOH protein was first labeled by 2 at pH 9.5 for 1 h and passed successively through three Bio-Gel spin columns equilibrated with PBS to remove the unreacted 2. Near 100% labeling of AhpC was configured by ESI-TOF MS. The C165S AhpC-2 adduct concentration was measured at 280 nm using the extinction coefficient 24,300 (M^−1 cm^−1) and then diluted in PBS to a final concentration of 50 μM. Click reaction was conducted by adding the following reagents in order: biotin-OEG11-azide (1 mM, final, from 50 mM stock in DMSO), TCEP (2 mM, final, from 100 mM stock freshly made in H2O), TBTA (0.1 mM, final, from 1.7 mM stock made in 1:4 DMSO/t-butanol) and CuSO4 (1 mM, final, from 50 mM stock in H2O). The mixture was incubated at r.t. for 2 h and then 30 μL of reaction mixture was passed through a Bio-Gel column equilibrated with 0.1% formic acid for ESI-TOF MS analysis. The biotin moiety was removed by hydroxylamine treatment as described above and the reaction products were analyzed by ESI-TOF MS.
as §2

[4] = system: SCC-61 cells; assay: Cell membrane permeability assay; format: cell-based; details: 10 mM, 2 h
Experimental: SCC-61 cells were cultured to 95% confluence in complete media (DMEM/F12 High Glucose (Invitrogen) supplemented with 10% fetal bovine serum (FBS, Invitrogen), 1% penicillin & streptomycin (Invitrogen)). Cells were washed with HBSS buffer (pH 7.4) three times and incubated with 10 mM probe 2 in HBSS at r.t. for 2 h. Cells incubated in HBSS without 2 were included as controls. After the incubation, cells were carefully washed by HBSS three times to remove excess 2 and lysed with the lysis buffer described above except in the absence of 2. Lysates were incubated at r.t. for additional 2 h to ensure complete labeling prior to the addition of cold MeOH/CHCl3 for protein precipitation. The denatured proteins were resolubilized in 1% SDS (in PBS) for the click reaction, which was then followed by Western-blot analysis as described above.

[5] = biological target: C165S AhpC-SH, C165S AhpC-SO2H and —SO3H, WT AhpC-S—S-AhpC (Salmonella typhimurium, UniProt P0A251, C166S); assay: Control experiments using AhpC-SH, AhpC-SO2/3H and WT AhpC proteins (ESI-TOF MS); format: biochemical, bacteria; details: pH 9.5
C165S AhpC-SH, C165S AhpC-SO2H and —SO3H, WT AhpC-S—S-AhpC (Salmonella typhimurium, UniProt P0A251, C166S), sequence (P0A251 2-187 C166S): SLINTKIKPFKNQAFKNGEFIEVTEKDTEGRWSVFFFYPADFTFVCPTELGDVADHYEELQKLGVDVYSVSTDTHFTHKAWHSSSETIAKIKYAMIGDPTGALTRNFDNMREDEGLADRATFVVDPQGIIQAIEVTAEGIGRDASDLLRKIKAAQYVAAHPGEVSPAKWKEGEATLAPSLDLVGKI
Experimental: as §1, §2

[6] = system: SCC-61 cells; assay: MTT assay (cell viability); format: cell-based; details: 1 h incubation, 1-20 mM
Experimental: MTT (3-(4,5-dimethylthiazol-2-yl)-2,5-diphenyltetrazolium bromide) assay was used to test the SCC-61 cell viability when incubated with dimedone or 2 for 1 h. SCC-61 cells were seeded in a 96-well plate at a density of 5,000 per well in 50 μL, and incubated overnight. Dimedone or 2 (50 μL) was added to each well at final concentrations of 1, 2.5, 5, 10, and 20 mM. Plates were then incubated for 1 h at 37° C. in a humidified atmosphere with 5% CO2. MTT labeling reagent (Roche; 5 mg/ml in PBS, 10 μL) was added to each well, and the plate was incubated for 4 h at 37° C. The solubilization solution (100 μL) was then added to each well for overnight incubation at 37° C. The following day, absorbance was measured at 570 nm and all experiments were repeated twice. The resulting curves were fitted using SigmaPlot software to a sigmoidal dose-response equation to determine the IC50. The IC50 represents the concentration of chemical probe causing a 50% reduction in cell viability.

[7] = system: —SOH proteins in NIH 3T3 cell lysates; assay: Labeling of —SOH proteins in NIH 3T3 cell lysates (click biotinylation, Western blot); format: biochemical; details: for labeling of lysate proteins (streptavidin-HRP signal): 5 mM
Experimental: NIH 3T3 cells were cultured to 95% confluence in complete media (DMEM High Glucose (Invitrogen) supplemented with 10% fetal bovine serum (FBS, Invitrogen) and 1% penicillin & streptomycin (Invitrogen)). Cells were washed with PBS three times and lysed using 5 mM of 2 in lysis buffer (50 mM NaCl, 1 mM EDTA, 1 mM EGTA, 10% Glycerol, 1% Triton X-100, 25 mM NaF, 10 μM ZnCl2, supplemented with protease and phosphatase inhibitor tablets (Roche)). Lysis buffer was made in 50 mM citric acid/Na2HPO4 when labeling was carried out at pH 5.5 and 7.4, and in 50 mM NaHCO3/Na2CO3 for labeling at pH 9.5. Lysates were incubated for 2 h at r.t. and then quenched by adding cold MeOH/CHCl3^[1] to remove excess 2.
Cells were lysed using lysis buffer (pH 7.4) supplemented with 2 (5 mM) as described above. The labeling was allowed to proceed at r.t. for 2 h before quenching with MeOH/CHCl3. Protein pellets precipitated from 200 μL lysate were resuspended in 50 μL, 1% SDS in PBS, sonicated for 30 s and finally heated at 95° C. for 5 mins. Protein concentration was measured using Bio-Rad protein assay (SDS concentration in the assay 0.001%) and normalized to the same concentration. Click reaction was performed using the solubilized lysate proteins according to the procedures described above. After 2 h incubation, 15 μL reaction aliquot from each sample was mixed with 5 μL sample buffer (with β-mecaptoethanol) for SDS-PAGE and Western blot analysis. Biotinylated proteins were probed using Streptavidin-HRP. In control experiments, lysates were pre-reduced with 10 mM TCEP at pH 7.4 for 1 h at r.t. before the addition of 2; lysates prepared in the absence of 2 with or without click reaction were also included in the SDS-PAGE and Western blot analysis.

[8] = system: NIH 3T3 cells; assay: DCF assay (intracellular ROS level); format: cell-based; details: 10 mM, 2 h
Experimental: NIH 3T3 cells cultured in 60-mm dishes were serum starved overnight and incubated with 10 mM dimedone, reagent 2 or 1% DMSO individually for 2 h. 5-(and-6)-carboxy-2′,7′-dichloro-dihydrofluorescein diacetate (carboxy-H2DCFDA) (100 μM; Invitrogen) was added to cells at room temperature after the incubation. The cells were then immediately washed twice with PBS and visualized with Arcturus PixCell II laser capture microscope using 20× objective.

## COC(=O)CC(C)=O [compound 1, methyl acetoacetate]
[1]
  reaction with —SH, —S—S—, —SO2/3H, or other amino acid residues: did not react
[2]; in aqueous solution
  enol content: 7.4%
[3]; AhpC 50 uM, reagent 5 mM, pH 7.4, 3 h
  labeling of C165S AhpC-SOH (adduct product peak): labeling of C165S AhpC-SOH

## C#CCCOC(=O)CC(C)=O [compound 2, but-3-yn-1-yl 3-oxobutanoate]
[4]
  cell permeability (biotin signal after click reaction): cell permeable
[5]
  adduct formation with reduced form of C165S AhpC: no adduct formation
[6]
  effect on cell viability: did not significantly affect cell viability
[7]; pH 5.5
  labeling of lysate proteins (streptavidin-HRP signal): no visible signal
[7]; pH 7.4 and 9.5
  labeling of lysate proteins (streptavidin-HRP signal): Nearly equal labeling
[7]; pH 7.4, lysates pre-reduced with TCEP as control
  selectivity of labeling in cell lysates: selective towards —SOH
[8]
  intracellular ROS level (DCF): did not alter the basal level of ROS
[3]; higher pH (up to 9.5)
  reactivity with AhpC-SOH as pH increases: becomes highly reactive
[3]; pH 5.5 and 6.5
  reactivity with AhpC-SOH at low pH: reacts very slowly
[3]; pH 7.4, 2 h, r.t., 0.2-10 mM probe
  K0.5 (hyperbolic fit of labeling vs probe concentration): 3.0 ± 0.3 mM
[3]; pH 7.4 and 8.5, 50 μM protein, 5 mM reagent, 4 h
  labeling of —SOH compared with dimedone: Increased labeling

## CC1(C)CC(=O)CC(=O)C1 [dimedone, 5,5-dimethyl-1,3-cyclohexanedione, reference compound]
[6]; read-out: IC50 (50% reduction in cell viability)
  IC50: 5.3 ± 0.2 mM
[2]; reported
  keto-enol tautomerism state: exclusively in the enol state
  pKa for the carbon between keto groups: 4.3
[8]
  intracellular ROS level (DCF): significant increase in ROS
[3]; data not shown
  reactivity at mildly acidic or basic conditions compared to pH 7.4: slight increase in reactivity
